From article PMC7153899, “Anti-hyperglycemic activity of myricetin, through inhibition of DPP-4 and enhanced GLP-1 levels, is attenuated by co-ingestion with lectin-rich protein” (PLoS ONE, 2020) come the findings set out here.

The assay concerns the target T1, Dipeptidyl peptidase-4 (DPP-4) (Homo sapiens, UniProt P27487).
T1 construct: gene DPP4; recombinant DPP-4 (human)
Kind of assay: colorimetric enzyme assay with recombinant human DPP-4, gly-pro p-nitroanilide substrate, absorbance […] nm. In kind it is biochemical.

T1 sequence (P27487 39-766): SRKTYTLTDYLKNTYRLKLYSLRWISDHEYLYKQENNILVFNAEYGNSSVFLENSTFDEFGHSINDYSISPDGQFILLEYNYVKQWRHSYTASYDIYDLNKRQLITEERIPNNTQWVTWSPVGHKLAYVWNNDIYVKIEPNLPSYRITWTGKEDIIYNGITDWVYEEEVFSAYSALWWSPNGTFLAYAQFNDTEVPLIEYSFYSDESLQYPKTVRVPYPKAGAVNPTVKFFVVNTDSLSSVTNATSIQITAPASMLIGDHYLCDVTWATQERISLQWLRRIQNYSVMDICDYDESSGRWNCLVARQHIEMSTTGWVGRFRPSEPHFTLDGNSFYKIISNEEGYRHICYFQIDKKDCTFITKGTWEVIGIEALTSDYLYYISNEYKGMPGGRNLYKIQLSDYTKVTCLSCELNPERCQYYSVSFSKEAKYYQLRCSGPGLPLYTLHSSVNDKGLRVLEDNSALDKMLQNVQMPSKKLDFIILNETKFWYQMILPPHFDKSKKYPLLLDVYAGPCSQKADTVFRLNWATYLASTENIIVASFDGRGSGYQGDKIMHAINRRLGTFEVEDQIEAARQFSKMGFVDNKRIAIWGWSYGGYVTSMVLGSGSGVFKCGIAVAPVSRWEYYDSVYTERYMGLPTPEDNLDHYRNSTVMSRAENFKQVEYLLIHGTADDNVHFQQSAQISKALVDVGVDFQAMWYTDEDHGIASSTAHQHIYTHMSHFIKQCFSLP

`O=c1c(O)c(-c2cc(O)c(O)c(O)c2)oc2cc(O)cc(O)c12` [myricetin]: the IC50 turned out to be 4.8 ± 0.36 µM.
